The results in this text go back to patent publication US12173029B2, “Antiviral prodrugs, pharmaceutical formulations, and methods” (priority 2020, dated 2024).

Where only a bound is given, the exact number is not on record here.

The test system of series [1] is SARS-CoV-2. The series is described as follows: Example 6 SARS-CoV-2 infection assay in Huh7.5 cells (nucleocapsid immunofluorescence). The following applies: SARS CoV-2, Huh7.5 cells, MOI 0.1, 48 hours, percent infected cells. The series is classed as cell-based.
Series [2] concerns SARS-CoV-2. The series is described as follows: Example 6 SARS-CoV-2 infection assay in TMPRSS2-Vero cells (nucleocapsid immunofluorescence). Type of series: cell-based. Conditions: SARS CoV-2, TMPRSS2-Vero cells, MOI 0.01, 32 hours, percent infected cells.
Series [3] relates to Human Coronavirus 229E. The series is classed as cell-based. Conditions: HCoV-229E in MRC-5 cells, three days, CPE by MTT.
The format of series [4] is in vivo. The following applies: Syrian hamsters, sodium salt. As for the experimental part:
ODBG-P-RVn in 0.1M sodium carbonate/bicarbonate buffer, pH 9.0, was administered to Syrian Hamsters by oral gavage every 12 hours for seven days. ODBG-P-RVn was present as the sodium salt.
FIG. 5A and FIG. 5B depict the seven day oral pharmacokinetics in Syrian hamsters. Syrian hamsters were given vehicle or ODBG-P-RVn by oral gavage every 12 hours for 7 days. Groups of 3 animals received vehicle or drug at doses of 16.9 and 13.2 mg/kg. Animals were weighed daily and monitored for clinical signs.
Analytical Methods: ODBG-P-RVn: Hamster plasma samples (10 μL) containing ODBG-P-RVn and K2EDTA as the anticoagulant were added to polypropylene tubes containing water (100 μL), internal standard solution (10 μL; 1,000 ng/mL of ODE-P-RVn in ACN:DMF (1:1, v/v)), and 10 μL of ACN:DMF (1:1, v/v). The solutions were mixed, then acidified with phosphoric acid, 85% w/v:water (1:19, v/v; 10 μL), mixed, then diluted with 200 μL of IPA, mixed, then diluted with 500 μL of water, and mixed. […] The ODBG-P-RVn extracts were analyzed using an Agilent 1200 HPLC system (Agilent, Santa Clara, CA) coupled to an API5500 mass analyzer (SCIEX, Foster City, CA). […]
The solutions were mixed and centrifuged at 16,000 g for five minutes. […] The GS-441524 extracts were analyzed using an Acquity UPLC system (Waters, Milford, MA) coupled to a G2-S QTof mass analyzer (Waters, Milford, MA). […]

Series [5] concerns VERO E6 cells. The series is described as follows: Example 4 generation of remdesivir triphosphate in Vero E6 cells (LC/MS/MS). The series is classed as in vitro ADME, monkey. Conditions: exposure to 1 micromolar drug, up to 48 hours. Here is the method:
In this example, Vero E6 cells were plated in 6 well plates at about 3.4×10^5 cells per well in 2 mL of media (DMEM, 10% FBS).
Cells were then incubated at 37° C. for 24 hours. Media was then aspirated and replaced with 2 ml of control media (fresh Dulbecco's Modified Eagle's Medium (DMEM), 10% FBS) or 2 mL of media with drug at a concentration of 1 μM. Cell were incubated with the various drugs for 48 hours. The media was aspirated, the cells rinsed twice with phosphate-buffered saline (PBS), trypsinized for 5 minutes with 1 mL ATV, triturated and removed to a 15 mL centrifuge tube, rinsed with 1 mL PBS, which was also then removed to the 15 mL centrifuge tube, and the cells were triturated again. Cells were counted in a Reichert hemocytometer using two 10 μL samples, and the number of cells in each sample was determined.
Cells were centrifuged at 1200 rpm for 10 minutes, diluent aspirated and the pellet resuspended in 250 μL of methanol/distilled water (70/30) and analyzed by LC/MS/MS. The results, which are depicted at FIG. 3, were in picomoles/10^6 cells and are the average of two or three determinations.

Series [6] relates to SARS-CoV-2 isolate USA-WA1/2020. In words: Example 3 SARS-CoV-2 infection in Vero E6 cells (qRT-PCR Spike RNA). The series is classed as cell-based. On the technique in general: In qPCR the cycle at which signal appears reflects the starting amount.
For series [7] the test system is unchanged. The series is described as follows: Example 7 SARS-CoV-2 infection in Huh7.5 cells (qRT-PCR). Type of series: cell-based.
Series [8] has the same test system. The series is described as follows: Example 7 SARS-CoV-2 infection in Vero E6 cells (qRT-PCR). The series is classed as cell-based. The following applies: Severe acute respiratory syndrome coronavirus 2, Vero C1008, SARS-CoV-2, Vero E6 cells, MOI 0.01, 48 hours.
For series [9], the system named is USA WA-01 strain of SARS CoV-2. In words: Example 2 anti-coronavirus activity in Vero E6 cells (qPCR spike RNA). The series is classed as cell-based. The following applies: Vero C1008, SARS CoV-2 USA WA-01, Vero E6 cells, MOI 0.1, 48 hours. As for the experimental part: Ten thousand Vero E6 cells were seeded in 100 microliters of culture medium in 96 well plates. The following day serial two-fold dilutions of antiviral compounds or the DMSO-containing vehicle were added to each well. The USA WA-01 strain of SARS CoV-2 was added to each well at a multiplicity of infection of 0.1 thirty minutes later. Cells were incubated for 48 hours, washed twice in PBS and lysed with TRIzol. RNA was extracted using Directzol micro RNA columns. RNA was made into cDNA and assayed for the SARS CoV-2 spike protein and for a housekeeping gene (RPLPO) RNA by qPCR. Data represents the average of duplicate wells. Cellular cytotoxicity was also measured in VERO E6 cells. […] Cytotoxicity (CC50) was assessed using a commercially available MTT assay.

In series [10] the test system is SARS-CoV-2 isolate USA-WA1/2020. The series is described as follows: Example 7 SARS-CoV-2 infection in PSC-human lung cells (qRT-PCR). Type of series: cell-based.
Series [11] shares this test system. In words: Example 7 SARS-CoV-2 infection in Caco-2 cells (qRT-PCR). The series is classed as cell-based.
Series [12] has the same test system. In words: Example 7 SARS-CoV-2 infection in Calu-3 cells (qRT-PCR). Type of series: cell-based.
Series [13] is described as follows: Example 2 cellular cytotoxicity in Vero E6 cells (MTT). The following applies: monkey.
Where [14] appears, read: Severe acute respiratory syndrome coronavirus 2, Vero C1008, SARS-CoV-2 USA-WA1/2020, Vero E6 cells, MOI 0.01, 48 hours, mean±SD.
[15] abbreviates: Severe acute respiratory syndrome coronavirus 2, SARS-CoV-2, Huh7.5 cells, MOI 0.01, 48 hours, qRT-PCR, Example 7.
The mark [16] stands for this setting: Severe acute respiratory syndrome coronavirus 2, SARS-CoV-2, Calu-3 cells, MOI 0.01, 48 hours.

What is called EC50 is the concentration needed to bring the measured effect to its halfway point. One may read the EC90 as the concentration at which the effect reaches the 90% level. As to “1-O-octadecyl-2-O-benzyl-sn-glycerol-benzyl-phospho-RVn [Compound 16]”, the EC50 in series [1] was determined as 3.54 ± 0.583 µM; in series [2], 7.44 ± 0.818 µM; in series [3] it was 1.5 ± 0.93 µM. For the same molecule, the EC90 in [1] is 16.4 ± 5.98 µM; in series [2], 15.3 ± 5.91 µM; in series [3], 4.27 ± 0.88 µM.

`CCCCCCCCCCCCCCCCCCOC[C@H](COP(=O)(O)OC[C@H]1O[C@@](C#N)(c2ccc3c(N)ncnn23)[C@H](O)[C@@H]1O)OCc1ccccc1` [Compound 15d, 1-O-octadecyl-2-O-benzyl-glyceryl-sn-3-phospho-RVn]: in series [4] (oral gavage every 12 hours for seven days, 16.9 and 13.2 mg/kg), the “tolerability / clinical signs” value is “well tolerated, and no adverse clinical signs were noted”. Besides, the “time for plasma levels to fall by 50%” value in [4] (oral gavage) was “about 5 hours”. The “synthesis of remdesivir triphosphate (RVn-TP)” value in series [5] was “increased progressively to 48 hours”.

The CC50 is the concentration giving 50% cytotoxicity. Regarding `N#C[C@@]1(c2ccc3c(N)ncnn23)O[C@H](CO)[C@@H](O)[C@H]1O` [RVn, 2-C-(4-aminopyrrolo[2,1-f][1,2,4]triazin-7-yl)-2,5-anhydro-D-altrononitrile], the Selectivity in series [6] (Selectivity index, CC50/EC50, Vero E6 cells, Example 3) is listed as above 58.8; in [7] (Selectivity index CC50/EC50, Huh7.5 cells) it was above 312; in series [10] (Selectivity index CC50/EC50, PSC-human lung cells), above 135; in series [11] (Selectivity index CC50/EC50, Caco-2 cells), above 104; in series [12] (Selectivity index CC50/EC50, Calu-3 cells), above 666. In addition, the EC50 in series [6] (setting [14]) worked out at 1.7 µM; in series [7] (setting [15]) it was 0.32 µM; in series [8] it was 0.38 µM; in series [9], 1.56 µM; in [10] (Severe acute respiratory syndrome coronavirus 2, SARS-CoV-2, PSC-human lung cells, MOI 0.01, 48 hours) it was 0.74 µM; in series [11] (Severe acute respiratory syndrome coronavirus 2, SARS-CoV-2, Caco-2 cells, MOI 0.01, 48 hours) it was 0.96 µM. In [12] (setting [16]), this molecule came in with an EC50 of 0.15 µM. For the same molecule, the EC90 in series [6] (setting [14]) is 3.2 ± 0.77 µM; in series [7] (setting [15]) it was 0.73 µM; in [8], 0.77 µM; in series [9], 2.69 µM; in series [12] (setting [16]) it was 0.18 µM. The molecule also displayed a CC50 in [13] above 50 µM.
